Assay results published in ChEMBL document CHEMBL1144678, “Thiahomoisocitrate: a highly potent inhibitor of homoisocitrate dehydrogenase involved in the alpha-aminoadipate pathway” (Bioorg Med Chem, 2008).

How the values were obtained:
[1] = Inhibition of Saccharomyces cerevisiae homoisocitrate dehydrogenase
Saccharomyces cerevisiae = assay: Activity of Saccharomyces cerevisiae homoisocitrate dehydrogenase

SMILES: O=C(O)CSCC(=O)C(=O)O
- Ki [1]: 12 µM

SMILES: O=C(O)CO[C@H](C(=O)O)[C@@H](O)C(=O)O
- Ki [1]: 10 µM
- Km (Saccharomyces cerevisiae): 20 µM
- kcat (Saccharomyces cerevisiae): 0.59 s⁻¹

SMILES: O=C(O)CS[C@H](C(=O)O)[C@@H](O)C(=O)O
- Ki [1]: 0.097 µM

SMILES: O=C(O)CN[C@H](C(=O)O)[C@@H](O)C(=O)O
- Km (Saccharomyces cerevisiae): 150 µM
- kcat (Saccharomyces cerevisiae): 2 s⁻¹
